Experimental data reported in patent publication US4359465A, “Methods for treating gastrointestinal inflammation” (The Upjohn Company, priority 1980, dated 1982).

Assays:
[1] = system: Indomethacin-Induced Small Bowel Ulceration; details: rat; Kauffman et al. (1979), title; cited from earlier work
[2] = system: ethanol-induced gastric lesions; assay: Ethanol-induced gastric lesions (80% aqueous ethanol challenge), part A; assay type: in vivo, rat; details: rats; for gastric ulceration: oral 0.3, 1, 3, or 10 mg/kg, 30 min before 1 ml 80% ethanol, examined 1 hr later
Method: A. Four groups of rats, standard laboratory animals for determining cytoprotective effects of pharmacological agents, are fasted for 24 hr and then treated orally with (a) […], (b) cimetidine, (c) a cytoprotective prostaglandin, or (d) vehicle (10% Emulphor, 10% EtOH, 80% water). Thirty min later, the rats are challenged with an oral 1 ml dose of 80% aqueous ethanol, a standard agent for inducing gastric cytodestruction. One hr later, the rats are sacrificed (carbon dioxide asphyxiation) and the gastric tissues examined.

[3] = system: Cytoprotection Against Acidified Aspirin; details: Robert, Gastroenterology 76:1227 (1979); cited from earlier work
gastric secretion = details: in vivo; cited from earlier work
gastric acid secretion [4] = assay: Inhibition of pentagastrin-stimulated gastric acid secretion in conscious gastric fistula dogs; assay type: in vivo; details: Canis lupus familiaris, dog, intraduodenal, read-out: Effect % inhibition (peak inhibitory effect on gastric acid secretion)
Method: To determine the gastric acid secretion inhibitory properties, experiments have been performed on conscious dogs provided with gastric fistulas of conventional type and duodenal fistules, the latter ones used for direct introduodenal administration of the test compounds. After 18 hours starvation and deprivation of water the dogs were given subcutaneous infusion of pentagastrin (1-4 nmol/kg, h) lasting for 6-7 hours. Gastric juice was collected in consecutive 30 minutes samples. An aliquot of each sample was titrated with 0.1 N NaOH to […] for titrable acid concentration using an automatic titrator and pH-meter (Radiometer, Copenhagen, Denmark). Acid output was calculated as mmol H^+ /60 minutes. The percent inhibition compared to control experiments was calculated for each compound and the peak inhibitory effect is given in Table 2 below. The test compounds, suspended in 0.5% Methocel® (methyl cellulose), were given intraduodenally in doses from 4-20 μmol/kg when the secretory response to pentagastrin has reached a steady level. In the test prior known compounds were compared with the compounds of the present invention as will be evident from the Table 2 below. The following gastric acid inhibiting effect data were obtained for a number of compounds tested according to the method described.

[5] = system: thermally induced gastric ulceration; assay: Thermally induced gastric ulceration (boiling water); assay type: in vivo, rat; details: for ulcer incidence score (ulcers/stomach): rats, control score 8.0
[6] = Gastric volume / gastric emptying experiment, part B; assay type: in vivo, rat; details: rats, oral 0.01, 0.1, or 1.0 mg/kg; 5, 15, and 30 min after ingestion
Method: B. A further experiment is undertaken to rule out gastric emptying as a factor in the cytoprotection observed in part A above. In this experiment timoprazole was given orally at 0.01, 0.1, or 1.0 mg/kg to groups of rats and a further group of rats is treated with vehicle (same as in part A) only. As above, the rats are faster for 24 hr prior to treatment. Groups of rats are then sacrificed 5, 15, and 30 min after timoprazole ingestion. […] Accordingly, flluid accumulation in the stomach is not a factor in the cytoprotection observed in part A.

[7] = system: ethanol-induced gastric lesions; assay: Ethanol challenge with or without indomethacin pretreatment, part D; assay type: in vivo, rat; details: timoprazole 5 mg/kg orally, indomethacin 1 hr prior
Method: D. Because mild gastric irritants, e.g., 20% ethanol, are known to stimulate endogenous prostaglandin production, with consequent cytoprotection effects being observed, a further experiment is undertaken to determine whether timoprazole acts as a mild irritant (i.e., by stimulating endogenous cytoprotective prostaglandin production), or exerts a directly cytoprotective effect. In this experiment, rats are treated with timoprazole (5 mg/kg orally), but in each group of rats half the animals are pretreated with a NOSAC, indomethacin, 1 hr prior to treatment with timoprazole. One hr after ethanol challenge, the rats are sacrificed. […] Accordingly, the cytoprotective effects of timoprazole are not mediated by endogenous prostaglandin production.

[8] = system: ethanol-induced gastric ulceration; assay: Ethanol-induced gastric ulceration, less irritant vehicle, lowest dose protecting 50% of animals, part C; assay type: in vivo, rat; details: rats
Excerpt: C. […] The rats are sacrificed one hr after timoprazole administration and the extent of gastric ulceration determined.

gastric acid secretion [9] = assay: Gastric acid secretion inhibition in the rat; assay type: in vivo

CN/C(=N/CCSCc1nc[nH]c1C)NC#N [cimetidine, N-cyano-N'-methyl-N"[2-[[(5-methyl-1H-imidazol-4-yl)methyl]thio]ethyl]gunanidine]
inhibition of indomethacin-induced small bowel ulceration [1]: Does Not Inhibit
gastric ulceration [2]: all demonstrate gastric ulcers
number of ulcers ([2]; oral 0.3, 1.0, 3.0 or 10.0 mg/kg, 30 min before 80% ethanol): slight decrease in the number of ulcers
cytoprotective effects [3]: devoid of appreciable cytoprotective effects
inhibition of gastric secretion (gastric secretion): highly potent inhibitor of gastric secretion

COC(=O)c1cc2nc([S+]([O-])Cc3cc(OC)c(C)cn3)[nH]c2cc1C (stereo not shown) [compound 18, 2-[2-(4-methoxy-5-methyl)-pyridylmethylsulfinyl]-(5-carbomethoxy-6-methyl)-benzimidazole]
inhibition in vivo at 0.5 µmol/kg (gastric acid secretion [4]; dose 0.5 μol/kg): 90%

[O-][S+](Cc1ccccn1)c1nc2ccccc2[nH]1 (stereo not shown) [timoprazole, 2-[2-pyridylmethylsulfinyl]benzimidazole]
ulcer incidence score (ulcers/stomach) ([5]; 0.3 mg/kg): 7.6
ulcer incidence score (ulcers/stomach) ([5]; 1.0 mg/kg): 5.0
ulcer incidence score (ulcers/stomach) ([5]; 3.0 mg/kg): 3.9
ulcer incidence score (ulcers/stomach) ([5]; 10.0 mg/kg): 4.0
incidence and severity of ulcers as compared to vehicle ([5]; rats, 0.3, 1.0, 3.0, and 10.0 mg/kg): uniform reduction in the incidence and severity of ulcers
changes in gastric volume versus vehicle [6]: No significant changes in gastric volume
difference between rats receiving indomethacin and those not receiving it [7]: no significant difference
gastric ulceration (dose 0.3 mg/kg) ([2]; oral 0.3 mg/kg, 30 min before 80% ethanol): traces of mild ulceration
gastric ulceration [2]: no gastric ulceration
ED50 ([8]; Rattus norvegicus, read-out: ED50 (lowest dose at which 50% of the animals treated exhibit no gastric ulceration), oral, vehicle 5% EtOH, 1% Emulphor in water): < 1 mg/kg
reduction in ulceration, oral administration ([8]; oral 1, 3, or 10 mg/kg, 30 min before ethanol challenge): significant reduction in ulceration at all dosages tested
reduction of number of ulcers, subcutaneous administration ([8]; subcutaneous 1, 3, or 10 mg/kg, 30 min before ethanol challenge): did not significantly reduce the number of ulcers
inhibition in vivo at 4 µmol/kg (gastric acid secretion [4]): 50%
ED50 (gastric acid secretion [9]; in the rat): ~10 mg/kg
ED50 for gastric acid secretion inhibition relative to lowest cytoprotective dose observed (gastric acid secretion [9]; rat, ratio to lowest cytoprotective dose of part A): at least ten

Cc1cc(C)c2[nH]c([S+]([O-])Cc3ccccn3)nc2c1 (stereo not shown) [x (4-CH3,6-CH3, H, H, H, H), 2-[2-pyridylmethylsulfinyl]-(4,6-dimethyl)benzimidazole]
inhibition in vivo at 4 µmol/kg (gastric acid secretion [4]): 30%
